The record followed here is patent US20090093454A1, “Chemical Compounds” (priority 2005, published 2009).

Some results are limits rather than exact numbers.

The subject of this experiment is HIV-1. In words: HIV infectivity assay (Table 2, strain not given). The note with it: Human immunodeficiency virus 1, read-out: Activity Level. It counts as cell-based. The gist of the method:
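HOS cells expressing hCXCR4/hCCR5/hCD4 with HIV-LTR-luciferase, pre-treated 1 h with compound at 37 °C, then infected with HIV-1 Ba-L or IIIB (~2 million RLU/well) for 96 h. Infection read by Steady-Glo luciferase; cytotoxicity in uninfected cultures by CellTiter-Glo.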
As for `c1cnc2c(c1)CC[C@@H]1CCCN(Cc3nc4ccccc4n3CCCN3CCCCC3)[C@H]21` (racemic) [Example 43, (cis) 1-({1-[3-(1-piperidinyl)propyl]-1H-benzimidazol-2-yl}methyl)-1,2,3,4,4a,5,6,10b-octahydro-1,10-phenanthroline], the IC50 was less than 100 nM.
For `CN1CCC(N(C)c2cccc3nc(CN4CCC[C@H]5CCc6cccnc6[C@H]54)cn23)CC1` [Example 74, 2-[(4aR,10bS)-3,4,4a,5,6,10b-hexahydro-1,10-phenanthrolin-1(2H)-ylmethyl]-N-methyl-N-(1-methyl-4-piperidinyl)imidazo[1,2-a]pyridin-5-amine] the value was less than 100 nM; for `c1cnc2c(c1)CC[C@@H]1CCCN(Cc3cn4c(N5CCOCC5)cccc4n3)[C@H]21` (racemic) [Example 52, (cis) 1-{[5-(4-morpholinyl)imidazo[1,2-a]pyridin-2-yl]methyl}-1,2,3,4,4a,5,6,10b-octahydro-1,10-phenanthroline], 500 to 10000 nM.
For `CN(C)CCCn1c(CN2CC[C@@H]3CCc4cccnc4[C@H]32)nc2ccccc21` (racemic) [Example 132, (trans) 3-[2-(2,3,3a,4,5,9b-hexahydro-1H-pyrrolo[3,2-h]quinolin-1-ylmethyl)-1H-benzimidazol-1-yl]-N,N-dimethyl-1-propanamine] the value was 100 to 500 nM; for `CN(C)CCCn1c(CN2CCC[C@H]3CCc4cccnc4[C@H]32)nc2ccccc21` (racemic) [Example 41, (cis) 3-[2-(3,4,4a,5,6,10b-hexahydro-1,10-phenanthrolin-1(2H)-ylmethyl)-1H-benzimidazol-1-yl]-N,N-dimethyl-1-propanamine], less than 100 nM; for `CN(C)[C@@H]1CCN(c2cccc3nc(CN4CCC[C@H]5CCc6cccnc6[C@H]54)cn23)C1` [Example 105, (3R)-1-{2-[(4aR,10bS)-3,4,4a,5,6,10b-hexahydro-1,10-phenanthrolin-1(2H)-ylmethyl]imidazo[1,2-a]pyridin-5-yl}-N,N-dimethyl-3-pyrrolidinamine], less than 100 nM.
On to `OCCN1CCCN(c2cccc3nc(CN4CCC[C@H]5CCc6cccnc6[C@H]54)cn23)CC1` [Example 108, 2-(4-{2-[(4aR,10bS)-3,4,4a,5,6,10b-hexahydro-1,10-phenanthrolin-1(2H)-ylmethyl]imidazo[1,2-a]pyridin-5-yl}hexahydro-1H-1,4-diazepin-1-yl)ethanol], for which the IC50 is less than 100 nM.
For `COCCN1CCN(c2cccc3nc(CN4CCC[C@H]5CCc6cccnc6[C@H]54)cn23)CC1` [Example 99, (4aR,10bS)-1-[(5-{4-[2-(methyloxy)ethyl]-1-piperazinyl}imidazo[1,2-a]pyridin-2-yl)methyl]-1,2,3,4,4a,5,6,10b-octahydro-1,10-phenanthroline] the value was less than 100 nM.
For `c1cnc2c(c1)CC[C@@H]1CCCN(Cc3cn4c(N5CCN6CCC[C@H]6C5)cccc4n3)[C@H]21` [Example 106, (4aR,10bS)-1-({5-[(8aS)-hexahydropyrrolo[1,2-a]pyrazin-2(1H)-yl]imidazo[1,2-a]pyridin-2-yl}methyl)-1,2,3,4,4a,5,6,10b-octahydro-1,10-phenanthroline] the value was less than 100 nM; for `c1cnc2c(c1)CC[C@@H]1CCCN(Cc3cn4c(NC5CCNC5)cccc4n3)[C@H]21` (stereo partly drawn) [Example 109, 2-[(4aR,10bS)-3,4,4a,5,6,10b-hexahydro-1,10-phenanthrolin-1(2H)-ylmethyl]-N-3-pyrrolidinylimidazo[1,2-a]pyridin-5-amine], 100 to 500 nM; for `CN(C)C1CCN(c2cccc3nc(CN4CCC[C@H]5CCc6cccnc6[C@H]54)cn23)C1` (stereo partly drawn) [Example 83, 1-{2-[(4aR,10bS)-3,4,4a,5,6,10b-hexahydro-1,10-phenanthrolin-1(2H)-ylmethyl]imidazo[1,2-a]pyridin-5-yl}-N,N-dimethyl-3-pyrrolidinamine], less than 100 nM.
For `CC(C)N1CCN(c2cccc3nc(CN4CCC[C@H]5CCc6cccnc6[C@H]54)cn23)CC1` [Example 82, (4aR,10bS)-1-({5-[4-(1-methylethyl)-1-piperazinyl]imidazo[1,2-a]pyridin-2-yl}methyl)-1,2,3,4,4a,5,6,10b-octahydro-1,10-phenanthroline] the value was less than 100 nM; for `CN(C)CCCn1cnc(CN2CCC[C@H]3CCc4cccnc4[C@H]32)c1` [Example 51a, (3-{4-[(4aR,10bS)-3,4,4a,5,6,10b-hexahydro-1,10-phenanthrolin-1(2H)-ylmethyl]-1H-imidazol-1-yl}propyl)dimethylamine], 500 to 10000 nM.
`CN1CCC[C@H](Cn2c(CN3CCC[C@H]4CCc5cccnc5[C@H]43)nc3ccccc32)C1` [Example 66, (4aR,10bS)-1-[(1-{[(3S)-1-methyl-3-piperidinyl]methyl}-1H-benzimidazol-2-yl)methyl]-1,2,3,4,4a,5,6,10b-octahydro-1,10-phenanthroline]: the IC50 was less than 100 nM.
Take `NCCN1CCN(c2cccc3nc(CN4CCC[C@H]5CCc6cccnc6[C@H]54)cn23)CC1` [Example 92, [2-(4-{2-[(4aR,10bS)-3,4,4a,5,6,10b-hexahydro-1,10-Phenanthrolin-1(2H)-ylmethyl]imidazo[1,2-a]pyridin-5-yl}-1-piperazinyl)ethyl]amine]: the IC50 is less than 100 nM.
`CN1CCN(c2cccc3nc(CN4CCC[C@H]5CCc6cccnc6[C@H]54)c(CO)n23)CC1` [Example 54, [2-[(4aR,10bS)-3,4,4a,5,6,10b-hexahydro-1,10-phenanthrolin-1(2H)-ylmethyl]-5-(4-methyl-1-piperazinyl)imidazo[1,2-a]pyridin-3-yl]methanol]: the IC50 was less than 100 nM.
For `c1cnc2c(c1)CC[C@@H]1CCCN(Cc3cn4c(N5CCC(C6CCNCC6)CC5)cccc4n3)[C@H]21` [Example 76a, (4aR,10bS)-1-{[5-(4,4′-bipiperidin-1-yl)imidazo[1,2-a]pyridin-2-yl]methyl}-1,2,3,4,4a,5,6,10b-octahydro-1,10-phenanthroline] the value was 100 to 500 nM; for `CN(C)CC1CCN(c2cccc3nc(CN4CCC[C@H]5CCc6cccnc6[C@H]54)cn23)CC1` [Example 86, [(1-{2-[(4aR,10bS)-3,4,4a,5,6,10b-hexahydro-1,10-phenanthrolin-1(2H)-ylmethyl]imidazo[1,2-a]pyridin-5-yl}-4-piperidinyl)methyl]dimethylamine], less than 100 nM.
With `CN1CCN(c2cccc3nc(CN4CCC[C@H]5CCc6cccnc6[C@@H]54)cn23)CC1` [Example 53, (4aR,10bR)-1-{[5-(4-methyl-1-piperazinyl)imidazo[1,2-a]pyridin-2-yl]methyl}-1,2,3,4,4a,5,6,10b-octahydro-1,10-phenanthroline], the IC50 is less than 100 nM.
For `CN1CCN(Cc2c(CN3CCC[C@H]4CCc5cccnc5[C@H]43)nc3cccc(N4CCN(C)CC4)n23)CC1` [Example 56, (4aR,10bS)-1-({5-(4-methyl-1-piperazinyl)-3-[(4-methyl-1-piperazinyl)methyl]imidazo[1,2-a]pyridin-2-yl}methyl)-1,2,3,4,4a,5,6,10b-octahydro-1,10-phenanthroline] the value was less than 100 nM.
